Measured values reported in patent publication US12318365B2, “Inhibition of dipeptide repeat proteins” (ALS Therapy Development Institute, priority 2019, dated 2025).
No end group written: not given here.

How the values were obtained:
[1] = test system: NSC-34 motor-neuron-like cells; test: WST-1 assay (dysmetabolism) in NSC-34 cells; format: cell-based, Mouse; details: for dose dependence of abrogation of GR15-induced dysmetabolism / dose dependence of abrogation of PR15-induced dysmetabolism: dose range of the example
Text: WST-1 Assay: The WST-1 assay is a colorimetric assay that measures cell metabolism. Cells with a healthy metabolism contain mitochondrial dehydrogenase enzymes that remove hydrogen atoms from certain molecules, resulting in a release of energy that the cell can use to perform critical reactions. In the WST-1 assay, a water soluble tetrazolium salt substrate (known as WST-1) is applied, which readily enters cells and their mitochondria upon application. If cells are viable, their mitochondrial dehydrogenase enzymes will catalyze the reaction to convert this WST-1 substrate to a colored product called Formazan. The production of this colored Formazan product by viable cells can be quantified using a spectrophotometer (plate reader). Higher absorbance readings correspond to greater metabolic activity/cell viability.
NSC-34 Cell Culture: NSC-34 cells (Cedarlane Laboratories, Burlington, ON, CA) were cultured in a complete medium consisting of High Glucose Dulbecco's Modified Eagle Medium (Millipore-Sigma, Burlington, MA, USA) supplemented with 10% US-origin fetal bovine serum (Thermo-Fisher Scientific, Cambridge, MA, USA), 1% 200 mM L-Glutamine solution (Thermo-Fisher Scientific, Cambridge, MA, USA), and 1% 10,000 U/mL Penicillin-Streptomycin solution (Thermo-Fisher Scientific, Cambridge, MA, USA). Prior to preparation of NSC-34 complete medium, L-Glutamine and Penicillin-Streptomycin solutions were aliquoted and stored at −20° C., and DMEM/High Glucose was stored at 4°. […] Prepared complete medium, DPBS, and Trypsin were always heated in a 37° C. water bath before use, and stored at 4° C. between uses. Cell counts for plating were performed using a Hausser Scientific cell counting chamber (Thermo-Fisher Scientific, Cambridge, MA, USA).
Proteins were reconstituted in sterile DMSO (Millipore-Sigma, Burlington, MA, USA) to stock concentrations of 10 mM, and stored at 4° C.
After reconstitution using the solvents specified in Table _, stocks were aliquoted to 15-20 μL and immediately stored at −20° C.
One row on the top and bottom of the plate, and two columns on either side of the plate, were left without cells and contained culture medium only to minimize experimental well volume evaporation. After plating, cells were incubated for 24 h at 37° C., 5% CO2 prior to DRP and/or PRMT inhibitor addition. At time of DRP/PRMT inhibitor addition, desired doses of DRP for challenge and inhibitor for treatment were achieved by diluting aliquots of each stock in warm culture medium. During experiments where both PRMT inhibitors and DRPs were used, PRMT inhibitors were always applied to wells first, and followed by DRP application. […] Inhibitor toxicity controls were included as wells treated with the desired doses of drug for the experiment, but no DRP. DRP toxicity controls were included as wells only treated with the doses of DRP used for challenge. […] Additional controls needed for each endpoint are specified in the “WST-1 Assay” and “LDH Assay” sections of these methods.
WST-1 Assay: Cells were plated and prepared using the steps described in the “Plating NSC-34 and Dosing with DRPs and PRMT Inhibitors” section of these methods. Other controls for this experiment included wells containing only cells in culture medium, and culture medium only. At time of testing, culture medium was removed from wells and replaced with a warmed, sterile-filtered solution consisting of DPBS with calcium and magnesium, and 4.5 g/L D-glucose (Millipore-Sigma, Burlington, MA, USA). To wells containing 200 μL DPBS-glucose solution, 20 μL/well WST-1 reagent (Millipore-Sigma, Burlington, MA) was applied and plates were then incubated at 37° C., 5% CO2 for 1 h before plates were read at 450 nm on a SpectraMax M3 Microplate Reader (Molecular Devices, San Jose, CA, USA). Experiments included three replicates per condition.

[2] = test system: NSC-34 cells; test: LDH assay (cytotoxicity) in NSC-34 cells; format: cell-based; details: for dose dependence of abrogation of GR15-induced cytotoxicity / dose dependence of abrogation of PR15-induced cytotoxicity: dose range of the example
Text: LDH Assay: The LDH assay is a colorimetric assay that measures cell toxicity and death. […] When cells lose membrane integrity, an enzyme found in living cells called lactate dehydrogenase (LDH) is released into the solution surrounding the dying cell. A form of programmed cell death, apoptosis, as well as other forms of cell death also ultimately lead to a cell's membrane being destroyed, resulting in a large release of LDH into the extracellular space. Thus, LDH is an excellent marker not only for necrosis, but for all instances of cell death. In an LDH assay, a sample of the solution surrounding the cell is isolated, and transferred to a plate containing an LDH reaction mixture. This reaction mixture contains a tetrazolium salt intermediate and other reaction constituents that, when exposed to LDH, convert the tetrazolium salt into a colored Formazan product. This Formazan product can be quantified spectrophotometrically. Greater absorbance readings correspond to more cell death.
One row on the top and bottom of the plate, and two columns on either side of the plate, were left without cells and contained culture medium only to minimize experimental well volume evaporation. After plating, cells were incubated for 24 h at 37° C., 5% CO2 prior to DRP and/or PRMT inhibitor addition. At time of DRP/PRMT inhibitor addition, desired doses of DRP for challenge and inhibitor for treatment were achieved by diluting aliquots of each stock in warm culture medium. During experiments where both PRMT inhibitors and DRPs were used, PRMT inhibitors were always applied to wells first, and followed by DRP application. […] Inhibitor toxicity controls were included as wells treated with the desired doses of drug for the experiment, but no DRP. DRP toxicity controls were included as wells only treated with the doses of DRP used for challenge. Once dosed, plates were incubated for 24 h at 37° C., 5% CO2 prior to running the WST-1 or LDH assay endpoints. Additional controls needed for each endpoint are specified in the “WST-1 Assay” and “LDH Assay” sections of these methods.
LDH Assay: Cells were plated and prepared using the steps described in the “Plating NSC-34 and Dosing with DRPs and PRMT Inhibitors” section of these methods. Other controls for this experiment included several sets of wells with only cells in culture medium (one triplicate designated for “untreated,” one triplicate designated for “lysed” positive control), and wells with culture medium only. An additional control added only to the transfer plate at time of testing was 5 μL LDH only. Testing was performed using colorimetric LDH-Cytotoxicity Assay Kit II (Abcam, Cambridge, MA, USA) per manufacturer's instructions. Final read at 450 nm was performed on a SpectraMax M3 Microplate Reader (Molecular Devices, San Jose, CA, USA). Data analysis included calculation of % LDH release using the following equation: […]
Experiments included three replicates per condition. Each experiment was repeated twice (executed three times total).
(§1) The following conditions were plated in triplicate.
Plates were incubated for 24 h at 37° C., 5% CO2. Cells were tested and data were analyzed by LDH assay.
Cells were plated in culture medium in 2 96-well plates at a density of 3.7×10^4 cells per well, and incubated overnight at 37° C., 5% CO2.
as §1
Cells were plated in culture medium in 2 96-well plates at a density of 3.7×10^4 cells per well, and incubated overnight at 37° C., 5% CO2. […]
The following conditions were plated in triplicate. […]

[3] = 3 μM GR15, 24 h, doses 0.2-20 μM

CNCCN(C)Cc1c[nH]nc1-c1ccc(OC2CC(OCCC3CCOCC3)C2)cc1 (centres unmarked) [EPZ020411]
dose with the greatest abrogation of GR15-induced dysmetabolism [1, 3]: 20 µM
abrogation of GR15-induced dysmetabolism ([1]; 3 μM GR15, 24 h, inhibitor doses 2, 10 and 20 μM): partially abrogated
dose dependence of abrogation of GR15-induced dysmetabolism ([1]; 3 μM GR15 challenge, 24 h): dose-dependently abrogated
abrogation of PR15-induced dysmetabolism ([1]; 3 μM PR15, 24 h, inhibitor doses 10 and 20 μM): completely abrogated
dose dependence of abrogation of PR15-induced dysmetabolism ([1]; 3 μM PR15 challenge, 24 h): dose-dependently abrogated
dysmetabolism independently of GR and PR challenge ([1]; no DRP, doses 10 and 20 μM, not attributable to DMSO): did cause significant dysmetabolism
dysmetabolism independently of GR and PR challenge ([1]; no DRP, other doses tested (0.2, 1, 2 μM)): not at other doses tested
abrogation of GR15-induced cytotoxicity ([2]; 3 μM GR15, 24 h, all doses but 0.2 μM (1, 2, 10, 20 μM)): partially abrogated
dose dependence of abrogation of GR15-induced cytotoxicity ([2]; 3 μM GR15, 24 h): dose-dependently abrogated
dose with the greatest effect on GR15-induced cytotoxicity [2, 3]: 20 µM
abrogation of PR15-induced cytotoxicity ([2]; 3 μM PR15, 24 h, all doses but 0.2 μM (1, 2, 10, 20 μM)): partially abrogated
dose dependence of abrogation of PR15-induced cytotoxicity ([2]; 3 μM PR15, 24 h): dose-dependently abrogated
dose with the greatest effect on PR15-induced cytotoxicity ([2]; 3 μM PR15, 24 h, doses 0.2-20 μM): 20 µM
cytotoxicity independently of GR and PR challenge ([2]; no DRP, doses 10 and 20 μM): did cause significant cytotoxicity

ADMe-GR15: asymmetrically dimethylated GR15, synthesized protein (Eurogentec) (GRGRGRGRGRGRGRGRGRGRGRGRGRGRGR; also: asymmetric arginine dimethylation, extent/places not given here)
dysmetabolism compared with non-methylated GR15 [1]: consistently producing more dysmetabolism than non-methylated GR15
cytotoxicity compared with non-methylated GR15 [2]: consistently producing more cytotoxicity than non-methylated GR15

CC(C)Oc1ccc(-c2c[nH]cc2CN(C)CCO)cc1 [MS094]
abrogation of GR15-induced dysmetabolism ([1]; 3 μM GR15 challenge, 24 h, over all tested doses of the inhibitor): No doses of negative control MS094 abrogated dysmetabolism
abrogation of PR15-induced dysmetabolism ([1]; 3 μM PR15 challenge, 24 h, over all tested doses of the inhibitor): No doses of negative control MS094 abrogated dysmetabolism
abrogation of GR15-induced cytotoxicity ([2]; 3 μM GR15, 24 h, over all tested doses (0.2-60 μM)): No doses of negative control MS094 abrogated cytotoxicity
abrogation of PR15-induced cytotoxicity ([2]; 3 μM PR15, 24 h, over all tested doses (0.2-60 μM)): No doses of negative control MS094 abrogated cytotoxicity
cytotoxicity of inhibitor alone vs untreated controls ([2]; no DRP, doses 10, 30 and 60 μM, at highest 2 doses likely DMSO-related): produced cytotoxicity

O=C(NC[C@H](O)CN1CCc2ccccc2C1)c1ccnc(NC2CCC2)c1 [GSK591]
dysmetabolism independently of PR15 challenge vs untreated controls ([1]; no DRP, doses 33, 100 and 200 μM): produced dysmetabolism

CCOCC1(COCC)CCC(c2n[nH]cc2CN(C)CCNC)CC1 [GSK3368715]
dose dependence of abrogation of GR15-induced dysmetabolism ([1]; 3 μM GR15 challenge, 24 h): dose-dependently abrogated
abrogation of GR15-induced dysmetabolism ([1]; 3 μM GR15 challenge, 24 h, inhibitor doses 1 and 3 μM): completely abrogated
dose dependence of abrogation of PR15-induced dysmetabolism ([1]; 3 μM PR15 challenge, 24 h): dose-dependently abrogated
abrogation of PR15-induced dysmetabolism ([1]; 3 μM PR15 challenge, 24 h, inhibitor doses 1 and 3 μM): completely abrogated
abrogation of GR15-induced cytotoxicity ([2]; 3 μM GR15, 24 h, dose 1 μM): completely abrogated
dose dependence of abrogation of GR15-induced cytotoxicity ([2]; 3 μM GR15, 24 h): dose-dependently abrogated
abrogation of PR15-induced cytotoxicity ([2]; 3 μM PR15, 24 h, dose 1 μM): completely abrogated
abrogation of PR15-induced cytotoxicity ([2]; 3 μM PR15, 24 h, dose 3 μM): nearly completely abrogated
dose dependence of abrogation of PR15-induced cytotoxicity ([2]; 3 μM PR15, 24 h): dose-dependently abrogated
cytotoxicity independently of GR15 and PR15 challenge ([2]; no DRP, all doses (0.1-10 μM), likely solvent effects): induced low levels of cytotoxicity
